Laboratory results published in patent publication US5405834A, “Prodrug derivatives of thyrotropin-releasing hormone (TRH)” (priority 1989, dated 1995).
Read-outs that look alike come from different tables or passages of the source.

Assays:
[1] = target: T1, pyroglutamyl aminopeptidase (PAPase I) (Bos taurus, UniProt A0ABI0NU39); assay: Degradation in buffer pH 7.4 containing pyroglutamyl aminopeptidase; settings: for half-life: calf
T1 sequence (A0ABI0NU39 1-214): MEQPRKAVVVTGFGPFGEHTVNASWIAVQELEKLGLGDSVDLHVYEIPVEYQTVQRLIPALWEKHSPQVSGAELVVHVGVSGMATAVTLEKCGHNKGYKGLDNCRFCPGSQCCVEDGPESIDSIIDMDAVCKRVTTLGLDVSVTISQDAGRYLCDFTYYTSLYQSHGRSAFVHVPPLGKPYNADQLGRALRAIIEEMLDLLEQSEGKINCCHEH
Protocol: (§1) Solutions of various compounds of formula I in aqueous buffer solutions or 80% human plasma solutions as well as in a buffer solution (pH 7.4) containing pyroglutamyl aminopeptidase (a calf liver preparation obtained from Boehringer, Mannheim, F.R.G.) were kept at 37° C. The initial concentration of the derivatives was in the range 10^-5 -10^-3 M. At various times an aliquot of the solutions was withdrawn and analyzed by HPLC for remaining (intact) derivative as well as for TRH. For the plasma solutions the aliquot (250 μl) withdrawn was added to 500 μl of a 2% solution of zinc sulphate in methanol-water (1:1 v/v) in order to deproteinize the plasma. After mixing and centrifugation for 3 min at 13,000 rpm, 20 μl of the clear supernatant was analyzed by HPLC as described above. The reaction conditions used for the studies with the pyroglutamyl aminopeptidase enzyme were identical to those previously described by Bundgaard & Moss (1989).
(§2) An HPLC method was used for the determination of TRH and its derivatives. […] For the determination of TRH formed upon hydrolysis of the various derivatives a mobile phase system consisting of acetonitrile-0.1% phosphoric acid (1:20 v/v) containing […] triethylamine was used. The flow rate was 1.5 ml min and the column effluent was monitored at 215 nm. Quantitation of the compounds was done by measuring the peak heights in relation to those of standards chromatographed under the same conditions.

[2] = Chromatographic capacity factor k' by reversed-phase column chromatography (relative lipophilicity); assay type: physicochemical; settings: Nova-PAK CN HP reversed-phase column; methanol-0.1% phosphoric acid (1:20 v/v) with 10^-3 M triethylamine
Excerpt: The capacity factor k' of a solute is defined as: k'=(tr -t0)/t0 where tr is the retention time of the solute and t0 is the elution time of the solvent.

[3] = Hydrolysis in aqueous buffer solutions (HPLC); assay type: physicochemical
Protocol: as §1, with “Solutions of various compounds of formula I in aqueous buffer solutions or 80% human plasma solutions as well as in a buffer solution (pH 7.4) containing pyroglutamyl aminopeptidase (a calf liver preparation obtained from Boehringer, Mannheim, F.R.G.) were kept at 37° C.” left out
as §2

in vitro = settings: for half-life: human, plasma
Protocol: as §1, §2
For the consideration of the derivatives as prodrugs of TRH a crucial point is evidently their degradation pathways. Ideally, the compounds should be hydrolyzed in plasma at the imidazole-protected moiety, releasing TRH in quantitative amounts.
The reactions taking place in plasma can be illustrated as shown in Scheme 1.

[4] = Apparent partition coefficient between 1-octanol and phosphate buffer pH 7.4; settings: for logD: 1-octanol/0.02 M phosphate buffer pH 7.4, pH 7.4
Protocol: (§3) The lipophilicity of the derivatives of the present invention and of TRH was assessed by measuring the apparent partition coefficients (P) of the compounds between 1-octanol and 0.02M phosphate buffer of pH 7.4.

[5] = rat, in vivo, iv; cited from earlier work
physchem = settings: pH 7.4
Protocol: as §3

[6] = in vivo, iv; cited from earlier work
[7] = Percutaneous absorption, in vitro diffusion through excised human skin (Franz cells); settings: for steady-state flux: 5% prodrug in aqueous solution (pH 6.0)
Protocol: The feasibility of achieving transdermal delivery of TRH via the prodrugs ot the present invention was evaluated by diffusion experiments in vitro using human skin samples.
Whole abdominal human skin obtained under autopsy was used. The skin was stored at -18° C. and was allowed to thaw gradually at room temperature before use. All subcutaneous fat was removed and the skin cut into pieces. […] The dermal side of the skin was exposed to the receptor medium (5 ml of 0.05M isotonic phosphate buffer solution of pH 7.2) which was stirred magnetically and kept at a constant temperature of 37° C. with a circulating water bath.
The compounds were applied as 5% w/v solutions in 0.05M phosphate buffer (final pH being 6.0) or propylene glycol (100 or 200 μl). At appropriate intervals samples of 1 ml were removed from the receptor phase and replaced with fresh buffer. The samples were immediately analyzed for TRH and prodrug content by HPLC as described above. The permeation studies of each compound in each vehicle were done in triplicate.

For `CCOC(=O)n1cnc(C[C@H](NC(=O)[C@@H]2CCC(=O)N2)C(=O)N2CCC[C@H]2C(N)=O)c1` [C2 H5], the half-life [1] was 23 min, the “log k'” value [2] was 0.85 and the “Half-lives at 37° C., pH 7.4 buffer” value [3] was 14.2 h. For the same molecule, the half-life (in vitro) was 228 min and the logD [4] was -1.3.

For `NC(=O)[C@@H]1CCCN1C(=O)[C@H](Cc1cn(C(=O)OC2CCCCC2)cn1)NC(=O)[C@@H]1CCC(=O)N1` [C6 H10 (cyclohexyl)], the half-life [1] was 22 min, the “log k'” value [2] was 1.28 and the “Half-lives at 37° C., pH 7.4 buffer” value [3] was 36.8 h. The half-life (in vitro) was 384 min and the logD [4] was 0.6.

For `NC(=O)[C@@H]1CCCN1C(=O)[C@H](Cc1cn(C(=O)OCc2ccccc2)cn1)NC(=O)[C@@H]1CCC(=O)N1` [CH2 C6 H5], the half-life [1] was 7 min, the “Half-lives at 37° C., pH 7.4 buffer” value [3] was 9.0 h and the logD [4] was -0.11.

For `NC(=O)[C@@H]1CCCN1C(=O)[C@H](Cc1cn(C(=O)OCCCl)cn1)NC(=O)[C@@H]1CCC(=O)N1` [CH2 CH2 Cl], the logD [4] was -1.1.

Work on `CCCCC(CC)COC(=O)n1cnc(C[C@H](NC(=O)[C@@H]2CCC(=O)N2)C(=O)N2CCC[C@H]2C(N)=O)c1` (stereo partly shown) [CH2 CH(C2 H5)C4 H9] yielded a logD [4] of 1.82.

In the case of `CC(C)COC(=O)n1cnc(C[C@H](NC(=O)[C@@H]2CCC(=O)N2)C(=O)N2CCC[C@H]2C(N)=O)c1` [CH2 CH(CH3)2], the half-life [1] is reported as 11 min, the “log k'” value [2] is reported as 1.09 and the “Half-lives at 37° C., pH 7.4 buffer” value [3] is reported as 19.0 h. The half-life (in vitro) was 258 min and the logD [4] was -0.44.

For `COC(=O)n1cnc(C[C@H](NC(=O)[C@@H]2CCC(=O)N2)C(=O)N2CCC[C@H]2C(N)=O)c1` [CH3], the half-life [1] was 12 min, the “log k'” value [2] was 0.71 and the “Half-lives at 37° C., pH 7.4 buffer” value [3] was 9.3 h. The half-life (in vitro) was 168 min and the “log P” value ([4]; octanol / 0.02 M phosphate buffer pH 7.4, 21° C.) was 1.88.

In the case of `CCC(CC)OC(=O)n1cnc(C[C@H](NC(=O)[C@@H]2CCC(=O)N2)C(=O)N2CCC[C@H]2C(N)=O)c1` [CH(C2 H5)2], the logD [4] is reported as 0.2.

Work on `CCCC(CCC)OC(=O)n1cnc(C[C@H](NC(=O)[C@@H]2CCC(=O)N2)C(=O)N2CCC[C@H]2C(N)=O)c1` [CH(C3 H7)2] yielded a logD [4] of 1.2.

With `CC(C)OC(=O)n1cnc(C[C@H](NC(=O)[C@@H]2CCC(=O)N2)C(=O)N2CCC[C@H]2C(N)=O)c1` [CH(CH3)2] the half-life [1] was 29 min, the “log k'” value [2] was 0.96 and the “Half-lives at 37° C., pH 7.4 buffer” value [3] was 35.8 h. It also gave a half-life (in vitro) of 396 min and a logD [4] of -0.8.

For `NC(=O)[C@@H]1CCCN1C(=O)[C@H](Cc1cnc[nH]1)NC(=O)[C@@H]1CCC(=O)N1` [TRH, pGlu-L-His-L-ProNH2, reference compound], the half-life ([1]; isolated enzyme aminopeptidase, pH 7.4) is listed as 4 min, the “Half-lives at 37° C., pyroglutamyl aminopeptidase” value ([1]; pH 7.4) is listed as 4 min and the plasma half-life [5] is listed as 4 to 6 min. For the same molecule, the “log k'” value [2] was < 0.4, the logD (physchem) was -2.46 and the plasma half-life [6] was 4 to 6 min. For the same molecule, the “Half-life at 37° C., 80% v/v human plasma” value (in vitro) was 9 min, the “zero-order rate constant of degradation” value (in vitro) was 7.2e-07 M/min and the half-life (in vitro) was 9 min.

With `CCCCOC(=O)n1cnc(C[C@H](NC(=O)[C@@H]2CCC(=O)N2)C(=O)N2CCC[C@H]2C(N)=O)c1` [n-C4 H9] the half-life [1] was 11 min, the “log k'” value [2] was 1.07 and the “Half-lives at 37° C., pH 7.4 buffer” value [3] was 19.0 h. For the same molecule, the half-life (in vitro) was 258 min and the logD [4] was -0.47.

With `CCCCCCOC(=O)n1cnc(C[C@H](NC(=O)[C@@H]2CCC(=O)N2)C(=O)N2CCC[C@H]2C(N)=O)c1` [n-C6 H13, N-Hexyloxycarbonyl TRH] the half-life [1] was 8 min, the “log k'” value [2] was 1.29 and the “Half-lives at 37° C., pH 7.4 buffer” value [3] was 17.9 h. The half-life (in vitro) was 72 min and the logD [4] was 0.71.

For `CCCCCCCCOC(=O)n1cnc(C[C@H](NC(=O)[C@@H]2CCC(=O)N2)C(=O)N2CCC[C@H]2C(N)=O)c1` [n-C8 H17, N-Octyloxycarbonyl TRH], the half-life [1] was 24 min, the “log k'” value [2] was 1.50 and the “time for 10% degradation” value ([3]; aqueous solution, pH 5.8, 20° C.) was 76 h. For the same molecule, the “Half-lives at 37° C., pH 7.4 buffer” value [3] was 17.5 h, the steady-state flux ([7]; human skin) was 0.044±0.006 μmol TRH/h/cm^2 and the steady-state flux ([7]; human skin, converted from μmol) was 16 μg TRH/h/cm^2. For the same molecule, the flux ([7]; 5% prodrug in propylene glycol, human skin) was 3.6 μg/h/cm^2, the “conversion of applied prodrug to parent TRH during diffusion through skin” value ([7]; human skin samples) was “Essentially all” and the half-life (in vitro) was 30 min. The logD [4] was 1.88.
